Patent US20250127843A1, “ADRENOCORTICOTROPIC HORMONE PEPTIDE COMPOSITIONS AND METHODS OF USE” (FERRING B.V., priority 2021, published 2025)
No end group written: not given here.

How the values were obtained:
[1] = system: Bcl-2; settings: cited from earlier work
[2] = Stability of the peptide in aqueous test formulations: change in impurity content by UPLC after storage; type: physicochemical; settings: for Δ Total impurities (difference in % (w/w) of impurities from Day 0 to Day 14) / Δ impurity at retention time 1.293 min (difference in % (w/w) of impurities from Day 0 to Day 14) / Δ impurity at retention time 4.923 min (difference in % (w/w) of impurities from Day 0 to Day 14) / Δ impurity at retention time 5.821 min (difference in % (w/w) of impurities from Day 0 to Day 14) / Δ impurity at retention time 6.267 min (difference in % (w/w) of impurities from Day 0 to Day 14) / Δ impurity at retention time 7.268 min (difference in % (w/w) of impurities from Day 0 to Day 14) / Δ impurity at retention time 10.47 min (difference in % (w/w) of impurities from Day 0 to Day 14): UPLC
Method: The effect of methionine on the stability of the peptide in an aqueous composition was evaluated. Test formulations of the peptide (1 mg/ml) in aqueous acetate buffer at pH 5.5 were prepared with or without methionine (1 mg/ml).
The effect of pH on the stability of the peptide in an aqueous composition was evaluated. Test formulations of the peptide in water (1 mg/ml) were prepared at a pH of 4.5, 5.0 or 5.5 using an acetate buffer. […]

[3] = system: cerebellar granule neurons; settings: during glutamate neurotoxicity; cited from earlier work
[4] = system: damaged cells under conditions of oxidative stress; settings: oxidative stress caused by short-term incubation with hydrogen peroxide; cited from earlier work
[5] = system: BDNF and NGF genes; settings: cited from earlier work
[6] = system: membranes of the basal ganglia and cerebral cortex; settings: cited from earlier work
[7] = system: PCNA; settings: cited from earlier work
[8] = system: nuclear membranes of nerve cells of the basal forebrain, hippocampus and cerebellum; settings: cited from earlier work
[9] = peptide 1 mg/ml in water, acetate buffer pH 4.5, 14 days at 60° C.
[10] = peptide 1 mg/ml in water, acetate buffer pH 5.0, 14 days at 60° C.
[11] = peptide 1 mg/ml, aqueous acetate buffer pH 5.5, 14 days at 60° C.

MEHFPGP [Peptide, Met-Glu-His-Phe-Pro-Gly-Pro]
levels of Bcl-2 [1]: increase levels of Bcl-2
stability of the peptide as a function of pH ([2]; pH 4.5, 5.0 or 5.5 acetate buffer, 14 days at 60° C.): most stable at pH 4.5
Δ Total impurities (difference in % (w/w) of impurities from Day 0 to Day 14) [2, 9]: 2.55 % (w/w)
Δ impurity at retention time 1.293 min (difference in % (w/w) of impurities from Day 0 to Day 14) [2, 9]: 0.3 % (w/w)
Δ impurity at retention time 4.923 min (difference in % (w/w) of impurities from Day 0 to Day 14) [2, 9]: 1.43 % (w/w)
Δ impurity at retention time 5.821 min (difference in % (w/w) of impurities from Day 0 to Day 14) [2, 9]: 0.28 % (w/w)
Δ impurity at retention time 6.267 min (difference in % (w/w) of impurities from Day 0 to Day 14) [2, 9]: 0 % (w/w)
Δ impurity at retention time 7.268 min (difference in % (w/w) of impurities from Day 0 to Day 14) [2, 9]: 0.28 % (w/w)
Δ impurity at retention time 10.47 min (difference in % (w/w) of impurities from Day 0 to Day 14) [2, 9]: 0.1 % (w/w)
Δ Total impurities (difference in % (w/w) of impurities from Day 0 to Day 14) [2, 10]: 4.07 % (w/w)
Δ impurity at retention time 1.293 min (difference in % (w/w) of impurities from Day 0 to Day 14) [2, 10]: 0.55 % (w/w)
Δ impurity at retention time 4.923 min (difference in % (w/w) of impurities from Day 0 to Day 14) [2, 10]: 2.58 % (w/w)
Δ impurity at retention time 5.821 min (difference in % (w/w) of impurities from Day 0 to Day 14) [2, 10]: 0.12 % (w/w)
Δ impurity at retention time 6.267 min (difference in % (w/w) of impurities from Day 0 to Day 14) [2, 10]: 0.11 % (w/w)
Δ impurity at retention time 7.268 min (difference in % (w/w) of impurities from Day 0 to Day 14) [2, 10]: 0.28 % (w/w)
Δ impurity at retention time 10.47 min (difference in % (w/w) of impurities from Day 0 to Day 14) [2, 10]: 0.24 % (w/w)
Δ Total impurities (difference in % (w/w) of impurities from Day 0 to Day 14) [2, 11]: 8.49 % (w/w)
Δ impurity at retention time 1.293 min (difference in % (w/w) of impurities from Day 0 to Day 14) [2, 11]: 1.19 % (w/w)
Δ impurity at retention time 4.923 min (difference in % (w/w) of impurities from Day 0 to Day 14) [2, 11]: 5.58 % (w/w)
Δ impurity at retention time 5.821 min (difference in % (w/w) of impurities from Day 0 to Day 14) [2, 11]: 0.1 % (w/w)
Δ impurity at retention time 6.267 min (difference in % (w/w) of impurities from Day 0 to Day 14) [2, 11]: 0.27 % (w/w)
Δ impurity at retention time 7.268 min (difference in % (w/w) of impurities from Day 0 to Day 14) [2, 11]: 0.31 % (w/w)
Δ impurity at retention time 10.47 min (difference in % (w/w) of impurities from Day 0 to Day 14) [2, 11]: 0.84 % (w/w)
survival of cerebellar granule neurons [3]: significantly increase the survival
number of damaged cells [4]: reduce the number of damaged cells
transcription of the neurotrophin BDNF and NGF genes [5]: rapid induction of the transcription
specific binding to membranes [6]: specifically bind to the membranes of the basal ganglia and cerebral cortex
expression of the nuclear protein PCNA [7]: significant increase in the expression
binding to nuclear membranes of nerve cells [8]: bind to the nuclear membranes of nerve cells of the basal forebrain, hippocampus and cerebellum
